Test results as given in patent US11786464B2, “PH responsive block copolymer compositions and micelles that inhibit MCT 1 and related proteins” (The Board of Regents of the University of Texas System, priority 2020, dated 2023).
Read-outs that look alike come from different tables or passages of the source.

Columns and labels:
[1] = Toxicity analysis (body weight, cTnI, ALT, AST) in tumor-bearing mice; assay type: in vivo
Experimental: Six to eight week old mice (n=5-7 for each group) were injected subcutaneously with TC-1 (2×10^5) or B16F10 (2×10^5) cells into the right flank. […] Some groups were intraperitoneally injected with 200 μg checkpoint inhibitors (anti-mPD-1, BioXcell, BE0146) for comparison or synergy evaluation. Tumor growth was subsequently measured twice a week using a digital caliper and calculated as 0.5×length×width×height by blinded investigators. Mouse weight was also recorded. Mice were sacrificed when the tumor volumes reached 1,500 mm^3.
Blood of different mouse groups were collected after 4 h. Then alanine transaminase activity assay (Abcam, ab105134), aspartate aminotransferase activity assay (Abcam, ab105135), and mouse cardiac troponin-I ELISA analysis (Life Diagnostics, Inc., Cat. No. CTNI-1-HS) were performed.

in vivo = assay type: in vivo, mice; conditions: for concentration at 24 h: tumor tissue 24 h after administration, read-out: tumor accumulation of AZD3965
Experimental: Mouse plasma were collected and added into 1 mL of methanol/water mixture (80/20, v/v) at 0.5, 6 and 24 h after treatment by different regimens. Tissues (heart, liver, kidney and tumor) were collected at 24 h. About 100 mg of tissues were removed, and the wet weight was recorded. The tissues were homogenized in 1 mL of methanol/water mixture (80/20, v/v). The plasma and tissue mixture were centrifuged and the supernatant was collected respectively, dried by a SpeedVac, then dissolved in methanol and measured by HPLC.

TC-1 cells = assay: Measurement of lactate and pH in the cell culture medium; assay type: cell-based; conditions: 1 μM (effective) AZD3965, 24 h, added directly (intact NPs), vs untreated control
Experimental: All animal procedures were performed with ethical compliance and approval by the Institutional Animal Care and Use Committee at the University of Texas Southwestern Medical Center. Cells were cultured in DMEM medium (10% fetal bovine serum, 100 U/mL penicillin G sodium and 100 μg/mL streptomycin (Pen/Strep), non-essential amino acids, and 20 μM β-mercaptoethanol (β-ME)) at 37° C. in 5% CO2 and the normal level of O2.
For lactate measurement, TC-1 cells were cultured in normal DMEM medium as described above with different drugs: free AZD3965 (1 uM), intact AZD-UPS NPs (1 uM effective AZD3965 concentration), or pretreatment of AZD-UPS NPs in pH 6.0 buffer for pH-activated drug release followed by addition into the cell culture medium. After 24 h incubation, lactate concentration was measured by NOVA BioProfile 4. For pH measurement, TC-1 cells were cultured in DMEM medium (D5030, Sigma) without NaHCO3, and in incubator without CO2 for 24 h, followed by measurement of medium pH.

TC-1 tumor = assay: Tumor growth and survival, TC-1 tumor model; assay type: in vivo; conditions: TC-1 model, day 27
Experimental: Six to eight week old mice (n=5-7 for each group) were injected subcutaneously with TC-1 (2×10^5) or B16F10 (2×10^5) cells into the right flank. Animals were treated by 50 mg/kg AZD3965 (administered twice daily by oral gavage for a total of 7 days), or by AZD-UPS NPs (containing 2 mg/kg AZD3965, IV injected at days 7, 10 and 13). Some groups were intraperitoneally injected with 200 μg checkpoint inhibitors (anti-mPD-1, BioXcell, BE0146) for comparison or synergy evaluation. Tumor growth was subsequently measured twice a week using a digital caliper and calculated as 0.5×length×width×height by blinded investigators. Mouse weight was also recorded. Mice were sacrificed when the tumor volumes reached 1,500 mm^3.

[2] = oral administration 50 mg/kg for 7 days, serum 4 h after last treatment, vs untreated

Cc1[nH]nc(C(F)(F)F)c1Cc1sc2c(c1C(=O)N1C[C@](C)(O)CO1)c(=O)n(C)c(=O)n2C(C)C [AZD3965]
level of alanine aminotransferase (ALT) [1, 2]: significantly increased | level of aspartate aminotransferase (AST) [1, 2]: significantly increased | level of cardiac troponin-I (cTnI) [1, 2]: significantly increased | body weight ([1]; oral administration, two weeks of treatment): did not cause weight loss | clearance from plasma (in vivo; intravenous injection 2 mg/kg): rapid clearance of the drug | AUC (in vivo; mouse, intravenous 2 mg/kg AZD3965, plasma, read-out: area under the concentration-time (AUC) value): 5400 ± 2500 ng·h/mL | concentration at 24 h (in vivo; mouse, intravenous 2 mg/kg): 290 ± 120 ng/g | concentration at 24 h (in vivo; mouse, oral administration 100 mg/kg (50-fold higher dose)): 4000 ± 3500 ng/g | peak drug plasma concentration (in vivo; oral administration 100 mg/kg, at 30 min, TC-1 tumor-bearing mice): 47 ± 27 µg/mL | lactate secretion into culture medium (TC-1 cells): significantly decreased the secretion of lactate | pH change of culture medium (TC-1 cells): inhibited the lowering of pH in the medium | tumor volume (TC-1 tumor; oral 50 mg/kg twice daily for 7 days, p=0.09 vs untreated): 9.2±4.1×10^2 mm^3 | tumor volume (TC-1 tumor; oral AZD3965 in combination with anti-PD1): 8.0±3.1×10^2 mm^3
